Results taken from patent US12458021B2, “Microbiocidal derivatives” (SYNGENTA CROP PROTECTION AG, priority 2019, dated 2025).

Columns and labels:
[1] = system: Glomerella lagenarium (Colletotrichum lagenarium); experiment: Glomerella lagenarium (Colletotrichum lagenarium) / liquid culture (anthracnose); type: cell-based; details: Colletotrichum orbiculare, PDB potato dextrose broth, 24° C., 3-4 days after application, read-out: control of Glomerella lagenarium (inhibition of growth, photometric)
Summary of the method: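 Conidia from cryogenic storage suspended in potato dextrose broth and added to DMSO compound solution in plates. Incubated at 24° C; growth inhibition read photometrically 3-4 days after application.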

[2] = system: Puccinia recondita f. sp. tritici; experiment: Puccinia recondita f. sp. tritici / wheat / leaf disc preventative (brown rust); type: in vivo; details: foliar, wheat leaf segments cv. Kanzler, inoculated 1 day after application, assessed 7-9 days after application, read-out: control of Puccinia recondita f. sp. tritici, preventative (percent disease control compared to untreated)
Summary of the method: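 Wheat leaf segments (cv. Kanzler) on agar were sprayed with formulated compound, then inoculated with spores 1 day later. Segments were incubated at 19 °C, 75% rh with 12 h light/dark. Percent disease control versus untreated was scored 7–9 days after application.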

[3] = system: Monographella nivalis (Microdochium nivale); experiment: Monographella nivalis (Microdochium nivale) / liquid culture (foot rot cereals); type: cell-based; details: PDB potato dextrose broth, 24° C., 4-5 days after application, read-out: control of Monographella nivalis (inhibition of growth, photometric)
Summary of the method: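 Cryostored M. nivalis conidia mixed into potato dextrose broth and added to 96-well plates holding test compound in DMSO. Incubated at 24° C; growth inhibition read photometrically 4-5 days after application.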

[4] = system: Phaeosphaeria nodorum (Septoria nodorum); experiment: Phaeosphaeria nodorum (Septoria nodorum) / wheat / leaf disc preventative (glume blotch); type: in vivo; details: Parastagonospora nodorum, foliar, wheat leaf segments cv. Kanzler, inoculated 2 days after application, assessed 5-7 days after application, read-out: control of Phaeosphaeria nodorum (percent disease control compared to untreated)
Description: Example B6: Phaeosphaeria nodorum (Septoria nodorum)/Wheat/Leaf Disc Preventative (Glume Blotch) Wheat leaf segments cv. Kanzler are placed on agar in a multiwell plate (24-well format) and sprayed with the formulated test compound diluted in water. The leaf disks are inoculated with a spore suspension of the fungus 2 days after application. The inoculated test leaf disks are incubated at 20° C. and 75% rh under a light regime of 12 h light/12 h darkness in a climate cabinet and the activity of a compound is assessed as percent disease control compared to untreated when an appropriate level of disease damage appears in untreated check leaf disks (5-7 days after application). […] […]-190.

[5] = system: Pyrenophora teres; experiment: Pyrenophora teres / barley / leaf disc preventative (net blotch); type: in vivo; details: foliar, barley leaf segments cv. Hasso, inoculated 2 days after application, assessed 5-7 days after application, read-out: control of Pyrenophora teres (disease control compared to untreated)
Description: Example B13: Pyrenophora teres/Barley/Leaf Disc Preventative (Net Blotch) Barley leaf segments cv. Hasso are placed on agar in a multiwell plate (24-well format) and sprayed with the formulated test compound diluted in water. The leaf segments are inoculated with a spore suspension of the fungus 2 days after application. The inoculated leaf segments are incubated at 20° C. and 65% rh under a light regime of 12 h light/12 h darkness in a climate cabinet and the activity of a compound is assessed as disease control compared to untreated when an appropriate level of disease damage appears in untreated check leaf segments (5-7 days after application). […] […]-185.

[6] = system: Alternaria solani; experiment: Alternaria solani / tomato / leaf disc (early blight); type: in vivo; details: foliar, tomato leaf disks cv. Baby, inoculated 2 days after application, assessed 5-7 days after application, read-out: control of Alternaria solani (percent disease control compared to untreated)
Description: Example B1: Alternaria solani/Tomato/Leaf Disc (Early Blight) Tomato leaf disks cv. Baby are placed on agar in multiwell plates (24-well format) and sprayed with the formulated test compound diluted in water. The leaf disks are inoculated with a spore suspension of the fungus 2 days after application. The inoculated leaf disks are incubated at 23° C./21° C. […] […]-185.

[7] = system: Magnaporthe grisea (Pyricularia oryzae); experiment: whole plant or invertebrate; type: in vivo; details: foliar, read-out: control of Magnaporthe grisea (percent disease control compared to untreated)
[8] = system: Blumeria graminis f. sp. tritici (Erysiphe graminis f. sp. tritici); experiment: Blumeria graminis f. sp. tritici / wheat / leaf disc preventative (powdery mildew on wheat); type: in vivo; details: foliar, wheat leaf segments cv. Kanzler, inoculated 1 day after application, assessed 6-8 days after application, read-out: control of Blumeria graminis f. sp. tritici (percent disease control compared to untreated)
Source text: Example B4: Blumeria graminis f. sp. tritici (Erysiphe graminis f. sp. tritici)/Wheat/Leaf Disc Preventative (Powdery Mildew on Wheat) Wheat leaf segments cv. Kanzler are placed on agar in a multiwell plate (24-well format) and sprayed with the formulated test compound diluted in water. The leaf disks are inoculated by shaking powdery mildew infected plants above the test plates 1 day after application. […] […]-192.

[9] = system: Mycosphaerella arachidis (Cercospora arachidicola); experiment: Mycosphaerella arachidis (Cercospora arachidicola) / liquid culture (early leaf spot); type: cell-based; details: PDB potato dextrose broth, 24° C., 4-5 days after application, read-out: control of Mycosphaerella arachidis (inhibition of growth, photometric)
Description: Example B8: Mycosphaerella arachidis (Cercospora arachidicola)/Liquid Culture (Early Leaf Spot) Conidia of the fungus from cryogenic storage are directly mixed into nutrient broth (PDB potato dextrose broth). After placing a (DMSO) solution of test compound into a microtiter plate (96-well format), the nutrient broth containing the fungal spores is added. The test plates are incubated at 24° C. and the inhibition of growth is determined photometrically 4-5 days after application. […] […]-180.

[10] = system: Mycosphaerella graminicola (Septoria tritici); experiment: Mycosphaerella graminicola (Septoria tritici) / liquid culture (Septoria blotch); type: cell-based; details: Zymoseptoria tritici, PDB potato dextrose broth, 24° C., 4-5 days after application, read-out: control of Mycosphaerella graminicola (inhibition of growth, photometric)
Summary of the method: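 Conidia from cryogenic storage were mixed into potato dextrose broth and added to test compound in DMSO. Plates were incubated at 24° C, and growth inhibition was read photometrically 4-5 days after application.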

[11] = system: Botryotinia fuckeliana (Botrytis cinerea); experiment: Botryotinia fuckeliana (Botrytis cinerea) / liquid culture (gray mould); type: cell-based; details: Vogels broth, 24° C., 3-4 days after application, read-out: control of Botryotinia fuckeliana (inhibition of growth, photometric)
Description: Example B2: Botryotinia fuckeliana (Botrytis cinerea)/Liquid Culture (Gray Mould) Conidia of the fungus from cryogenic storage are directly mixed into nutrient broth (Vogels broth). After placing a (DMSO) solution of test compound into a microtiter plate (96-well format), the nutrient broth containing the fungal spores is added. The test plates are incubated at 24° C. and the inhibition of growth is determined photometrically 3-4 days after application. […] […]-190.

COc1ccc(Nc2cc(F)cc(F)c2)nc1C(=O)NCC(C)(C)C [Compound P-22, 6-(3,5-difluoroanilino)-N-(2,2-dimethylpropyl)-3-methoxy-pyridine-2-carboxamide]
≥ 80%: inhibition at 20 ppm [1] | pest or weed control at 200 ppm [2] | inhibition at 20 ppm [3] | pest or weed control at 200 ppm [4] | pest or weed control at 200 ppm [5] | pest or weed control at 200 ppm [6] | pest or weed control at 200 ppm [7] | pest or weed control at 200 ppm [8] | inhibition at 20 ppm [9] | inhibition at 20 ppm [10]

COc1ccc(Nc2cc(F)cc(F)c2)nc1C(=O)NCc1cc(F)cc(F)c1 [Compound P-26, 6-(3,5-difluoroanilino)-N-[(3,5-difluorophenyl)methyl]-3-methoxy-pyridine-2-carboxamide]
≥ 80%: inhibition at 20 ppm [1] | pest or weed control at 200 ppm [2] | inhibition at 20 ppm [3] | pest or weed control at 200 ppm [4] | pest or weed control at 200 ppm [5] | pest or weed control at 200 ppm [7] | pest or weed control at 200 ppm [8] | inhibition at 20 ppm [9] | inhibition at 20 ppm [10]

COc1ccc(NCC(O)CO)nc1C(=O)NCC(C)(C)C (stereo not shown) [Compound P-42, 6-(2,3-dihydroxypropylamino)-N-(2,2-dimethylpropyl)-3-methoxy-pyridine-2-carboxamide]
≥ 80%: inhibition at 20 ppm [1] | inhibition at 20 ppm [11]

COc1ccc(Nc2cc(F)cc(F)c2)nc1C(=O)NC1CCC1Oc1ccc(F)cc1 (stereo not shown) [Compound P-45, 6-(3,5-difluoroanilino)-N-[2-(4-fluorophenoxy)cyclobutyl]-3-methoxy-pyridine-2-carboxamide]
≥ 80%: inhibition at 20 ppm [1] | pest or weed control at 200 ppm [2] | inhibition at 20 ppm [3] | pest or weed control at 200 ppm [4] | pest or weed control at 200 ppm [5] | pest or weed control at 200 ppm [6] | pest or weed control at 200 ppm [7] | pest or weed control at 200 ppm [8] | inhibition at 20 ppm [9] | inhibition at 20 ppm [10]

COc1ccc(Nc2cc(F)cc(F)c2)nc1C(=O)NC1CCc2cc(C(F)(F)F)ccc21 (stereo not shown) [Compound P-55, 6-(3,5-difluoroanilino)-3-methoxy-N-[5-(trifluoromethyl)indan-1-yl]pyridine-2-carboxamide]
≥ 80%: inhibition at 20 ppm [1] | pest or weed control at 200 ppm [2] | inhibition at 20 ppm [3] | pest or weed control at 200 ppm [4] | pest or weed control at 200 ppm [6] | pest or weed control at 200 ppm [7] | inhibition at 20 ppm [9] | inhibition at 20 ppm [10]

COc1ccc(Nc2cc(F)cc(F)c2)nc1C(=O)NC1CCc2ccc(C(F)(F)F)cc21 (stereo not shown) [Compound P-56, 6-(3,5-difluoroanilino)-3-methoxy-N-[6-(trifluoromethyl)indan-1-yl]pyridine-2-carboxamide]
≥ 80%: inhibition at 20 ppm [1] | pest or weed control at 200 ppm [2] | inhibition at 20 ppm [3] | pest or weed control at 200 ppm [4] | pest or weed control at 200 ppm [6] | inhibition at 20 ppm [9] | inhibition at 20 ppm [10]

COc1ccc(Nc2cc(F)cc(F)c2)nc1C(=O)NCc1ccc(Oc2ccccc2)cc1 [Compound P-57, 6-(3,5-difluoroanilino)-3-methoxy-N-[(4-phenoxyphenyl)methyl]pyridine-2-carboxamide]
≥ 80%: inhibition at 20 ppm [1] | pest or weed control at 200 ppm [2] | inhibition at 20 ppm [3] | pest or weed control at 200 ppm [4] | pest or weed control at 200 ppm [5] | pest or weed control at 200 ppm [7] | pest or weed control at 200 ppm [8] | inhibition at 20 ppm [9] | inhibition at 20 ppm [10]

COc1ccc(Nc2cc(F)cc(F)c2)nc1C(=O)NCC1(C(F)(F)F)CC1 [Compound P-62, 6-(3,5-difluoroanilino)-3-methoxy-N-[[1-(trifluoromethyl)cyclopropyl]methyl]pyridine-2-carboxamide]
≥ 80%: inhibition at 20 ppm [1] | pest or weed control at 200 ppm [2] | inhibition at 20 ppm [3] | pest or weed control at 200 ppm [4] | pest or weed control at 200 ppm [5] | pest or weed control at 200 ppm [6] | pest or weed control at 200 ppm [7] | pest or weed control at 200 ppm [8] | inhibition at 20 ppm [9] | inhibition at 20 ppm [10]

CCOc1ccc(Nc2cc(F)cc(F)c2)nc1C(=O)NC(C)(C)C [Compound P-94, N-tert-butyl-6-(3,5-difluoroanilino)-3-ethoxy-pyridine-2-carboxamide]
≥ 80%: inhibition at 20 ppm [1] | inhibition at 20 ppm [3] | pest or weed control at 200 ppm [4] | pest or weed control at 200 ppm [5] | pest or weed control at 200 ppm [6] | pest or weed control at 200 ppm [7] | pest or weed control at 200 ppm [8] | inhibition at 20 ppm [9] | inhibition at 20 ppm [10]

COc1ccc(Nc2ccc(C)c(F)c2)nc1C(=O)NCC(C)(C)C [Compound P-142, N-(2,2-dimethylpropyl)-6-(3-fluoro-4-methyl-anilino)-3-methoxy-pyridine-2-carboxamide]
≥ 80%: inhibition at 20 ppm [1] | inhibition at 20 ppm [11]
